Data as given in patent US20200230100A1, “AGONIST OF 67 KDA LAMININ RECEPTOR AND UTILIZATION THEREOF” (priority 2017, published 2020).
Each block holds one molecule with its values, some of them ahead of it.

How the values were obtained:
Mec-1 = assay: Anti-cancer action: number of viable cells (ATPlite) after 96 hours of culture; assay type: cell-based; conditions: Mec-1 human chronic lymphocytic leukemia cell line
Description: (§1) Specifically, OHBFB was added to a medium of various cancer cell lines and the number of viable cells was measured. For comparison, the anti-cancer action of epigallocatechin gallate (hereinafter sometimes referred to as “EGCG”) was also studied similarly.
(§2) Examples of the cancer cell lines include U266 which is a human multiple myeloma cell line, ARH77 which is a human multiple myeloma cell line, RPMI8226 which is a human multiple myeloma cell line, Mec-1 which is a human chronic lymphocytic leukemia cell line, HL60 which is a human acute myeloid leukemia cell line, Kasumi-1 which is a human acute myeloid leukemia cell line, and KU812 which is human chronic myeloid leukemia cell line were used.
(§3) As each of the cancer cell lines, a cell line obtained by subculturing the cells under the conditions of 37° C. and 5% CO2 saturated with water vapor using an RPMI 1640 medium supplemented with a 10% fetal calf serum (FCS), and culturing and maintaining the cells in a logarithmic growth phase.
(§4) EGCG (manufactured by Sigma-Aldrich) was dissolved in ultrapure water to 5 mM, stored at −30° C., and appropriately thawed before use. OHBFB (manufactured by Nagara Bioscience) was dissolved in ultrapure water to 5 mM, stored at −30° C., and appropriately thawed before use.
(§5) Each of the cancer cell lines was suspended in an RPMI 1640 medium supplemented with a 1% FCS, superoxide dismutase (SOD) (5 U/mL), and a catalase (200 U/mL) to 5×10^4 cells/mL, the suspension was seeded at 100 μL/well in a 96-well plate, OHBFB or EGCG at a final concentration of 0, 5, 10, or 25 μM was added thereto, and the cells were cultured for 96 hours. Thereafter, the number of viable cells was measured using a commercially available kit (trade name “ATPlite,” PerkinElmer).

RPMI8226 = assay: as above; assay type: cell-based; conditions: RPMI8226 human multiple myeloma cell line
Description: as §1, §2, §3, §4, §5

KU812 = assay: as above; assay type: cell-based; conditions: KU812 human chronic myeloid leukemia cell line
Description: as §1, §2, §3, §4, §5

U266 [1] = assay: as above; assay type: cell-based; conditions: U266 human multiple myeloma cell line
Description: as §1, §2, §3, §4, §5

ARH77 = assay: as above; assay type: cell-based; conditions: ARH77 human multiple myeloma cell line
Description: as §1, §2, §3, §4, §5

Kasumi-1 = assay: as above; assay type: cell-based; conditions: Kasumi-1 human acute myeloid leukemia cell line
HL60 = assay: as above; assay type: cell-based; conditions: HL60 human acute myeloid leukemia cell line
U266 [2] = assay: Anti-cancer activity enhancing action by eriodictyol (ATPlite cell viability, isobologram analysis); assay type: cell-based, human
U266 [3] = assay: Anti-cancer activity enhancing action by flavanone (ATPlite cell viability); assay type: cell-based, human; conditions: U266, flavanone 5 μM with OHBFB 2.5 μM, 96 hours
Description: Specifically, U266 which is a human multiple myeloma cell line was suspended in an RPMI 1640 medium supplemented with 1% FCS, SOD (5 U/mL), and a catalase (200 U/mL) to 5×10^4 cells/mL, and the suspension was seeded at 100 μL per well in a 96-well plate. […] As a control, a sample to which the same volume of PBS had been added instead of flavanone was used. As the flavanone, eriodictyol (manufactured by Extrasynthese Corp.), naringenin (manufactured by Tokyo Chemical Industry Co., Ltd.), and hesperetin (manufactured by Wako Pure Chemical Industries, Ltd.) were used. Subsequently, the cell viability was measured using a commercially available kit (trade name “ATPlite,” PerkinElmer).

U266 [4] = assay: Anti-cancer activity enhancing action by PDE5 inhibitor vardenafil (ATPlite cell viability, isobologram analysis); assay type: cell-based; conditions: Homo sapiens, U-266, 96 h, read-out: IC50 of vardenafil alone

IC50 (Mec-1): 8.3 µM
IC50 (RPMI8226): 11.1 µM
IC50 (KU812): 6.2 µM
IC50 (U266 [1]): 11.8 µM
IC50 (ARH77): 4 µM
IC50 (Kasumi-1): 9.6 µM
IC50 (HL60): 9.5 µM
SMILES: O=C(O[C@@H]1Cc2c(O)cc(O)cc2O[C@@H]1c1cc(O)c(O)c(O)c1)c1cc(O)c(O)c(O)c1 [EGCG, epigallocatechin gallate]

SMILES: O=C1C[C@@H](c2ccc(O)c(O)c2)Oc2cc(O)cc(O)c21 [eriodictyol]
IC50 (U266 [2]; Homo sapiens, U-266, 96 h, read-out: IC50 of eriodictyol alone): 89.4 µM
combined use of OHBFB and eriodictyol (isobologram analysis) (U266 [2]; U266, isobologram): synergistically enhances the anti-cancer activity of OHBFB
cell viability: enhancement of OHBFB anti-cancer activity by flavanone (U266 [3]): enhance the anti-cancer activity of OHBFB

SMILES: COc1ccc([C@@H]2CC(=O)c3c(O)cc(O)cc3O2)cc1O [hesperetin]
cell viability: enhancement of OHBFB anti-cancer activity by flavanone (U266 [3]): enhance the anti-cancer activity of OHBFB

SMILES: O=C1C[C@@H](c2ccc(O)cc2)Oc2cc(O)cc(O)c21 [naringenin]
cell viability: enhancement of OHBFB anti-cancer activity by flavanone (U266 [3]): enhance the anti-cancer activity of OHBFB

SMILES: CCCc1nc(C)c2c(=O)[nH]c(-c3cc(S(=O)(=O)N4CCN(CC)CC4)ccc3OCC)nn12 [vardenafil]
IC50 (U266 [4]): 92.7 µM
